Assay results from US20220153741A1, “HETEROCYCLIC COMPOUNDS AS INHIBITORS OF KRAS G12C” (Guangdong Newopp Biopharmaceuticals Co., Ltd., priority 2019, published 2022).

Legend:
[1] = tested on: NCI-H358 (H358, KRAS G12C) cancer cell line; assay: 3D proliferation assay, NCI-H358 (CellTiter-Glo); assay type: cell-based; settings: 96-well spheroid plate, 4 days
Experimental: (§1) 3D proliferation assay: NCI-H358 (H358, KRAS G12C) and LS513 (KRAS G12D) cancer cell lines were obtained from ATCC (American Type Culture Collection, VA). Cells were plated in 96-well spheroid plate (CORNING INC, NY)) in RPMI-1640 with 10% FBS. Compounds (11-point dilutions) and DMSO were added to the wells and incubated with cells for 4 days at 37° C. Cell viability was then determined by CellTiter-Glo (Promega, WI). IC50 values of compounds were determined as the concentration of 50% inhibition of cell viability compared to DMSO treated cells (A: IC50<0.1 μM; B: IC50 between 0.1 μM and 1 μM; C: IC50 between 1 μM and 10 μM; D: >10 μM; ND: not determined).

[2] = tested on: LS513 (KRAS G12D) cancer cell line; assay: 3D proliferation assay, LS513 (CellTiter-Glo); assay type: cell-based; settings: 96-well spheroid plate, 4 days
Experimental: as §1

IC50 [1] [nM] | IC50 ([2]; Homo sapiens, LS-513, 96 h) [µM] | IC50 ([1]; Homo sapiens, NCI-H358, 96 h) [nM] | IC50 [2] [µM] | Structure (SMILES)
> 10000 |  |  |  | C=C(F)C(=O)N1C[C@H](C)N(c2nc(=O)n3c4nc(c(F)cc24)-c2c(F)cccc2NCCCc2ccnc(C(C)C)c2-3)C[C@H]1C (single isomer, unassigned) [Example 6A]
100 to 1000 | > 10 |  |  | C=C(F)C(=O)N1C[C@H](C)N(c2nc(=O)n3c4nc(c(F)cc24)-c2c(F)cccc2NCCCc2ccnc(C(C)C)c2-3)C[C@H]1C (single isomer, unassigned) [Example 6B]
 |  | < 100 | > 10 | C=CC(=O)N1C[C@H](C)N(c2nc(=O)n3c4nc(c(F)cc24)-c2c(F)cccc2NCCCNc2cccc(C(C)C)c2-3)C[C@H]1C (single isomer, unassigned) [Example 23A]
100 to 1000 |  |  | 1 to 10 | C=CC(=O)N1C[C@H](C)N(c2nc(=O)n3c4nc(c(F)cc24)-c2c(F)cccc2NCCCNc2cccc(C(C)C)c2-3)C[C@H]1C (single isomer, unassigned) [Example 23B]
 | > 10 | < 100 |  | C=CC(=O)N1CCN(c2nc(=O)n3c4nc(c(F)cc24)-c2c(F)cccc2NCCCc2ccnc(C(C)C)c2-3)[C@@H](C)C1 [Example 2, (S)-2^4-(4-acryloyl-2-methylpiperazin-1-yl)-2^6,3^6-difluoro-1^2-isopropyl-2^1,2^2-dihydro-4-aza-2(1,7)-pyrido[2,3-d]pyrimidina-1(3,4)-pyridina-3(1,2)-benzenacycloheptaphan-2^2-one]
 |  | 1000 to 10000 |  | C=CC(=O)N1CCN(c2nc(=O)n3c4nc(c(F)cc24)-c2c(F)cccc2NC(=O)CCc2ccnc(C(C)C)c2-3)C[C@@H]1CC#N [Example 3, (S)-2-(1-acryloyl-4-(2^6,3^6-difluoro-1^2-isopropyl-2^2,5-dioxo-2^1,2^2-dihydro-4-aza-2(1,7)-pyrido[2,3-d]pyrimidina-1(3,4)-pyridina-3(1,2)-benzenacycloheptaphane-2^4-yl)piperazin-2-yl)acetonitrile]
 |  | 100 to 1000 |  | C=CC(=O)N1CCN(c2nc(=O)n3c4nc(c(F)cc24)-c2c(F)cccc2NC(=O)NCCc2ccnc(C(C)C)c2-3)[C@@H](C)C1 [Example 5, (S)-2^4-(4-acryloyl-2-methylpiperazin-1-yl)-2^6,3^6-difluoro-1^2-isopropyl-2^1,2^2-dihydro-4,6-diaza-2(1,7)-pyrido[2,3-d]pyrimidina-1(3,4)-pyridina-3(1,2)-benzenacyclooctaphane-2^2,5-dione]
 | > 10 | 100 to 1000 |  | C=C(F)C(=O)N1CCN(c2nc(=O)n3c4nc(c(F)cc24)-c2c(F)cccc2NCCCc2ccnc(C(C)C)c2-3)[C@@H](C)C1 [Example 11, (S)-2^6,3^6-difluoro-2^4-(4-(2-fluoroacryloyl)-2-methylpiperazin-1-yl)-1^2-isopropyl-2^1,2^2-dihydro-4-aza-2(1,7)-pyrido[2,3-d]pyrimidina-1(3,4)-pyridina-3(1,2)-benzenacycloheptaphan-2^2-one]
 | > 10 | 100 to 1000 |  | C=CC(=O)N1CCN(c2nc(=O)n3c4nc(c(F)cc24)-c2c(F)cccc2N(C(C)=O)CCCc2ccnc(C(C)C)c2-3)[C@@H](C)C1 [Example 12, (S)-4-acetyl-2^4-(4-acryloyl-2-methylpiperazin-1-yl)-2^6,3^6-difluoro-1^2-isopropyl-2^1,2^2-dihydro-4-aza-2(1,7)-pyrido[2,3-d]pyrimidina-1(3,4)-pyridina-3(1,2)-benzenacycloheptaphan-2^2-one]
 |  | 100 to 1000 |  | C=CC(=O)N1CCN(c2nc(=O)n3c4nc(c(F)cc24)-c2c(F)cccc2N(C(=O)N(C)C)CCCc2ccnc(C(C)C)c2-3)[C@@H](C)C1 [Example 13, (S)-2^4-(4-acryloyl-2-methylpiperazin-1-yl)-2^6,3^6-difluoro-1^2-isopropyl-N,N-dimethyl-2^2-oxo-2^1,2^2-dihydro-4-aza-2(1,7)-pyrido[2,3-d]pyrimidina-1(3,4)-pyridina-3(1,2)-benzenacycloheptaphane-4-carboxamide]
 |  | 1000 to 10000 |  | C=CC(=O)N1CCN(c2nc(=O)n3c4nc(c(F)cc24)-c2c(F)cccc2N(C(=O)c2cccnc2)CCCc2ccnc(C(C)C)c2-3)[C@@H](C)C1 [Example 14, (S)-2^4-(4-acryloyl-2-methylpiperazin-1-yl)-2^6,3^6-difluoro-1^2-isopropyl-4-nicotinoyl-2^1,2^2-dihydro-4-aza-2(1,7)-pyrido[2,3-d]pyrimidina-1(3,4)-pyridina-3(1,2)-benzenacycloheptaphan-2^2-one]
 |  | 1000 to 10000 |  | C=CC(=O)N1CCN(c2nc(=O)n3c4nc(c(F)cc24)-c2c(F)cccc2N(C)C(=O)NCCc2ccnc(C(C)C)c2-3)[C@@H](C)C1 [Example 16, (S)-2^4-(4-acryloyl-2-methylpiperazin-1-yl)-2^6,3^6-difluoro-1^2-isopropyl-4-methyl-2^1,2^2-dihydro-4,6-diaza-2(1,7)-pyrido[2,3-d]pyrimidina-1(3,4)-pyridina-3(1,2)-benzenacyclooctaphane-2^2,5-dione]
 | > 10 | 100 to 1000 |  | C=CC(=O)N1CCN(c2nc(=O)n3c4nc(c(F)cc24)-c2c(F)cccc2NC(=O)CCc2cccc(C(C)C)c2-3)[C@@H](C)C1 [Example 18, (S)-2^4-(4-acryloyl-2-methylpiperazin-1-yl)-2^6,3^6-difluoro-1^6-isopropyl-2^1,2^2-dihydro-4-aza-2(1,7)-pyrido[2,3-d]pyrimidina-1,3(1,2)-dibenzenacycloheptaphane-2^2,5-dione]
 | > 10 | < 100 |  | C=CC(=O)N1CCN(c2nc(=O)n3c4nc(c(F)cc24)-c2c(F)cccc2NC(=O)CCNc2cccc(C(C)C)c2-3)[C@@H](C)C1 [Example 21, (S)-2^4-(4-acryloyl-2-methylpiperazin-1-yl)-2^6,3^6-difluoro-1^6-isopropyl-2^1,2^2-dihydro-4,8-diaza-2(1,7)-pyrido[2,3-d]pyrimidina-1,3(1,2)-dibenzenacyclooctaphane-2^2,5-dione]
 | > 10 | < 100 |  | C=CC(=O)N1C[C@H](C)N(c2nc(=O)n3c4nc(c(F)cc24)-c2c(F)cccc2NC(=O)CCNc2cccc(C(C)C)c2-3)C[C@H]1C [Example 24A, 2^4-((2S,5R)-4-acryloyl-2,5-dimethylpiperazin-1-yl)-2^6,3^6-difluoro-1^6-isopropyl-2^1,2^2-dihydro-4,8-diaza-2(1,7)-pyrido[2,3-d]pyrimidina-1,3(1,2)-dibenzenacyclooctaphane-2^2,5-dione]
 | > 10 | < 100 |  | C=CC(=O)N1CCN(c2nc(=O)n3c4nc(c(F)cc24)-c2c(F)cccc2NC(=O)CNc2cccc(C(C)C)c2-3)[C@@H](C)C1 [Example 25, (S)-2^4-(4-acryloyl-2-methylpiperazin-1-yl)-2^6,3^6-difluoro-1^6-isopropyl-2^1,2^2-dihydro-4,7-diaza-2(1,7)-pyrido[2,3-d]pyrimidina-1,3(1,2)-dibenzenacycloheptaphane-2^2,5-dione]
 | > 10 | < 100 |  | C=CC(=O)N1C[C@H](C)N(c2nc(=O)n3c4nc(c(F)cc24)-c2c(F)cccc2NC(=O)CNc2cccc(C(C)C)c2-3)C[C@H]1C [Example 26, 2^4-((2S,5R)-4-acryloyl-2,5-dimethylpiperazin-1-yl)-2^6,3^6-difluoro-1^6-isopropyl-2^1,2^2-dihydro-4,7-diaza-2(1,7)-pyrido[2,3-d]pyrimidina-1,3(1,2)-dibenzenacycloheptaphane-2^2,5-dione]
